Data taken from ChEMBL document CHEMBL3603783, “Monoterpene indole alkaloid hydrazone derivatives with apoptosis inducing activity in human HCT116 colon and HepG2 liver carcinoma cells” (2015).
Calls of active or inactive are those of the source. The calls are words filed in the database; no cut-off is given here.

Experiments:
HCT-116 [1] = assay: Cytotoxicity against human HCT116 cells assessed as reduction in cell viability at 25 uM after 72 hrs by MTS assay relative to control; assay type: functional
HepG2 [2] = assay: Cytotoxicity against human HepG2 cells assessed as reduction in cell viability at 25 uM after 72 hrs by MTS assay relative to control; assay type: functional
HCT-116 [3] = assay: Induction of apoptosis in human HCT116 cells at 50 uM after 72 hrs by Guava ViaCount flow cytometric analysis relative to control; assay type: functional
HepG2 [4] = assay: Induction of apoptosis in human HepG2 cells at 50 uM after 72 hrs by Guava ViaCount flow cytometric analysis relative to control; assay type: functional
HCT-116 [5] = assay: Induction of apoptosis in human HCT116 cells assessed as change in nuclear morphology at 25 uM after 24 hrs by Hoechst staining-based fluorescence microscopic analysis relative to vehicle-treated control; assay type: functional
HCT-116 [6] = assay: Induction of apoptosis in human HCT116 cells assessed as change in nuclear morphology at 25 uM after 24 hrs by Hoechst staining-based fluorescence microscopic analysis relative to 5-FU; assay type: functional
HepG2 [7] = assay: Induction of apoptosis in human HepG2 cells assessed as change in nuclear morphology at 25 uM after 24 hrs by Hoechst staining-based fluorescence microscopic analysis relative to vehicle-treated control; assay type: functional
HepG2 [8] = assay: Induction of apoptosis in human HepG2 cells assessed as change in nuclear morphology at 25 uM after 24 hrs by Hoechst staining-based fluorescence microscopic analysis relative to 5-FU; assay type: functional
HCT-116 [9] = assay: Induction of apoptosis in human HCT116 cells assessed as increase in caspase-3/7 activity at 25 to 50 uM after 24 hrs by caspase-Glo 3/7 assay; assay type: functional, cell-based
HepG2 [10] = assay: Induction of apoptosis in human HepG2 cells assessed as increase in caspase-3/7 activity at 25 to 50 uM after 24 hrs by caspase-Glo 3/7 assay; assay type: functional, cell-based
HCT-116 [11] = assay: Cytotoxicity against human HCT116 cells assessed as reduction in cell viability at 5 to 50 uM after 72 hrs by MTS assay; assay type: functional, cell-based
HepG2 [12] = assay: Cytotoxicity against human HepG2 cells assessed as reduction in cell viability at 5 to 50 uM after 72 hrs by MTS assay; assay type: functional, cell-based
HCT-116 [13] = assay: Induction of apoptosis in human HCT116 cells at 5 to 50 uM after 72 hrs by Guava ViaCount flow cytometric analysis; assay type: functional, cell-based
HepG2 [14] = assay: Induction of apoptosis in human HepG2 cells at 5 to 50 uM after 72 hrs by Guava ViaCount flow cytometric analysis; assay type: functional, cell-based
HCT-116 [15] = assay: Induction of apoptosis in human HCT116 cells assessed as change in nuclear morphology at 25 to 50 uM after 24 hrs by Hoechst staining-based fluorescence microscopic analysis; assay type: functional, cell-based
HepG2 [16] = assay: Induction of apoptosis in human HepG2 cells assessed as change in nuclear morphology at 25 to 50 uM after 24 hrs by Hoechst staining-based fluorescence microscopic analysis; assay type: functional, cell-based
HCT-116 [17] = assay: Cytotoxicity against human HCT116 cells assessed as reduction in cell viability at 50 uM after 72 hrs by MTS assay relative to control; assay type: functional
HepG2 [18] = assay: Cytotoxicity against human HepG2 cells assessed as reduction in cell viability at 50 uM after 72 hrs by MTS assay relative to control; assay type: functional
HCT-116 [19] = assay: Cytotoxicity against human HCT116 cells assessed as reduction in cell viability at 10 uM after 72 hrs by MTS assay relative to control; assay type: functional
HCT-116 [20] = assay: Induction of apoptosis in human HCT116 cells at 25 uM after 72 hrs by Guava ViaCount flow cytometric analysis relative to control; assay type: functional
HepG2 [21] = assay: Induction of apoptosis in human HepG2 cells at 25 uM after 72 hrs by Guava ViaCount flow cytometric analysis relative to control; assay type: functional

CC[C@@H]1CN(C)[C@H]2Cc3c([nH]c4ccccc34)/C(=N/Nc3ccc(Br)cn3)C[C@H]1[C@@H]2C(=O)OC was tested, and the Activity (HCT-116 [1]) was greater than 95%, the Activity (HepG2 [2]) was greater than 95% and the Activity (HCT-116 [3]) was 95%. For the same molecule, the Activity (HepG2 [4]) was 95%, the “fold change (FC)” value (HCT-116 [5]) was 2 and the “fold change (FC)” value (HCT-116 [6]) was 2. For the same molecule, the “fold change (FC)” value (HepG2 [7]) was 4, the “fold change (FC)” value (HepG2 [8]) was 2 and the Activity (HCT-116 [9]) was “Active”. The Activity (HepG2 [10]) was “Active”.
O=c1[nH]cc(F)c(=O)[nH]1 was tested, and the Activity (HCT-116 [11]) was “Active”, the Activity (HepG2 [12]) was “Active” and the Activity (HCT-116 [13]) was “Active”. For the same molecule, the Activity (HepG2 [14]) was “Active”, the Activity (HCT-116 [15]) was “Active” and the Activity (HepG2 [16]) was “Active”.
In the case of CC[C@@H]1CN(C)[C@H]2Cc3c([nH]c4ccccc34)C(=O)C[C@@H]1[C@H]2C(=O)OC, the Activity (HCT-116 [17]) is reported as “inactive”, the Activity (HepG2 [18]) is reported as “inactive” and the Activity (HCT-116 [13]) is reported as “inactive”. For the same molecule, the Activity (HepG2 [14]) was “inactive”.
Work on CC[C@H]1CN(C)[C@H]2Cc3c([nH]c4ccccc34)/C(=N/Nc3ccc(Br)cn3)C[C@H]1[C@@H]2C(=O)OC yielded an Activity (HCT-116 [1]) greater than 95%, an Activity (HepG2 [2]) greater than 95% and an Activity (HCT-116 [19]) of 75%. For the same molecule, the Activity (HCT-116 [20]) was 95%, the Activity (HepG2 [21]) was 95% and the “fold change (FC)” value (HCT-116 [5]) was 4. The “fold change (FC)” value (HCT-116 [6]) was 4, the “fold change (FC)” value (HepG2 [7]) was 5.5 and the “fold change (FC)” value (HepG2 [8]) was 2.7. The Activity (HCT-116 [9]) was “Active” and the Activity (HepG2 [10]) was “Active”.
For CC[C@H]1CN(C)[C@H]2Cc3c([nH]c4ccccc34)/C(=N/Nc3ccccc3)C[C@H]1[C@@H]2C(=O)OC, the Activity (HCT-116 [17]) was “inactive” and the Activity (HepG2 [18]) was “inactive”.
CC[C@@H]1CN(C)[C@H]2Cc3c([nH]c4ccccc34)/C(=N/Nc3ccccc3)C[C@H]1[C@@H]2C(=O)OC showed an Activity (HepG2 [2]) of 60%, an Activity (HCT-116 [17]) greater than 95% and an Activity (HepG2 [18]) greater than 95%. For the same molecule, the Activity (HCT-116 [20]) was 35%, the Activity (HCT-116 [3]) was 95% and the Activity (HepG2 [21]) was 90%. The Activity (HepG2 [4]) was 95%, the Activity (HCT-116 [15]) was “Active” and the Activity (HepG2 [16]) was “Active”. The Activity (HCT-116 [9]) was “Active” and the Activity (HepG2 [10]) was “Active”.
CC[C@H]1CN(C)[C@H]2Cc3c([nH]c4ccccc34)C(=O)C[C@H]1[C@@H]2C(=O)OC was tested, and the Activity (HCT-116 [17]) was “inactive”, the Activity (HepG2 [18]) was “inactive” and the Activity (HCT-116 [13]) was “inactive”. For the same molecule, the Activity (HepG2 [14]) was “inactive”.
